According to patent US9073855B2, “BCL-2 selective apoptosis-inducing agents for the treatment of cancer and immune diseases” (AbbVie Inc., priority 2008, dated 2015):

What was measured:
[1] = target: GST-Bcl-2 (Homo sapiens, UniProt P10415); test: TR-FRET binding assay, GST-Bcl-2 with F-Bak peptide probe; conditions: for Ki: TR-FRET Binding Affinity, GST-Bcl-2, F-Bak peptide probe
In short: (§1)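 Ki was derived with Wang's equation for competitive binding of two ligands. The read-out was time-resolved fluorescence after a 3 h room-temperature incubation, using a Tb-labelled antibody donor and the F-Bak peptide acceptor (excitation 340/35 nm). Test compounds entered as DMSO serial dilutions starting at 50 μM, which was the 2× concentration.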

[2] = target: GST-Bcl-XL (Homo sapiens, UniProt Q07817); test: TR-FRET binding assay, GST-Bcl-XL with F-Bak peptide probe; conditions: TR-FRET Binding Affinity, GST-Bcl-XL, F-Bak peptide probe
In short: as §1

[3] = test system: FL5.12/Bcl-2 cells; test: FL5.12/Bcl-2 cell viability assay under IL-3 withdrawal (CellTitre Glo); format: cell-based, murine; conditions: Mus musculus, IL-3 withdrawn 48 hrs, then 24 hrs with compound
In short: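 Bcl-2-overexpressing murine FL5.12 transfectants underwent IL-3 removal for 48 hrs before a 24 hr compound treatment. Cell viability was quantified with CellTitre Glo.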

GST-Bcl-2, sequence (P10415 whole entry): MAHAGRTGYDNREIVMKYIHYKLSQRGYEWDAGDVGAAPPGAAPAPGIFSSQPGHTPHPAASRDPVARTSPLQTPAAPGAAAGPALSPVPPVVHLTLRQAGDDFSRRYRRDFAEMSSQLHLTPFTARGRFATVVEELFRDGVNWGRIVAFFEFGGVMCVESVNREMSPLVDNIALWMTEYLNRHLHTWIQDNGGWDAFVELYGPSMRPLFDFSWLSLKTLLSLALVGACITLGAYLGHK
GST-Bcl-XL, sequence (Q07817 whole entry): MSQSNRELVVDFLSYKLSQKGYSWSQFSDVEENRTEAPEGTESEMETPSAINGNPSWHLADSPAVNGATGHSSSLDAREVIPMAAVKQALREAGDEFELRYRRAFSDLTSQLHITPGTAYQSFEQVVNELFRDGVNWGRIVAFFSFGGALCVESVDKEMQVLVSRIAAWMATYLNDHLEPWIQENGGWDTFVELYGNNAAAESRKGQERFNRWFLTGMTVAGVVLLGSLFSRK

Compound | Ki [1] | Ki [2] | EC50 [3] | Binding selectivity ratio (Bcl-XL Ki/Bcl-2 Ki) ([1]; ratio of TR-FRET Ki values, Bcl-XL over Bcl-2)
CC1(C)CCC(CN2CCN(c3ccc(C(=O)NS(=O)(=O)c4ccc(NCC5CCS(=O)(=O)C5)c([N+](=O)[O-])c4)c(Oc4ccc5[nH]ccc5c4)c3)CC2)=C(c2ccc(Cl)cc2)C1 (stereo not shown) [Example 275, 4-(4-{[2-(4-chlorophenyl)-4,4-dimethylcyclohex-1-en-1-yl]methyl}piperazin-1-yl)-N-[(4-{[(1,1-dioxidotetrahydrothien-3-yl)methyl]amino}-3-nitrophenyl)sulfonyl]-2-(1H-indol-5-yloxy)benzamide] | 0.097 nM | > 660 nM | 38 nM | 
CN1CC(Nc2ccc(S(=O)(=O)NC(=O)c3ccc(N4CCN(CC5=C(c6ccc(Cl)cc6)CC(C)(C)CC5)CC4)cc3Oc3ccc4[nH]ccc4c3)cc2[N+](=O)[O-])CCC1=O (stereo not shown) [Example 282, 4-(4-{[2-(4-chlorophenyl)-4,4-dimethylcyclohex-1-en-1-yl]methyl}piperazin-1-yl)-2-(1H-indol-5-yloxy)-N-({4-[(1-methyl-6-oxopiperidin-3-yl)amino]-3-nitrophenyl}sulfonyl)benzamide] | 0.164 nM | 562 nM | 92.2 nM | 
CC1(C)CCC(CN2CCN(c3ccc(C(=O)NS(=O)(=O)c4ccc(N[C@@H]5CCN(CC(F)F)C5)c([N+](=O)[O-])c4)c(Oc4cccc5[nH]cnc45)c3)CC2)=C(c2ccc(Cl)cc2)C1 [Example 407, 2-(1H-benzimidazol-4-yloxy)-4-(4-{[2-(4-chlorophenyl)-4,4-dimethylcyclohex-1-en-1-yl]methyl}piperazin-1-yl)-N-[(4-{[(3R)-1-(2,2-difluoroethyl)pyrrolidin-3-yl]amino}-3-nitrophenyl)sulfonyl]benzamide] | 0.015 nM | 74.6 nM | 8.1 nM | 4930.6
CC1(C)CCC(CN2CCN(c3ccc(C(=O)NS(=O)(=O)c4ccc(NC5CCN(Cc6nccs6)CC5)c([N+](=O)[O-])c4)c(Oc4ccc5[nH]ccc5c4)c3)CC2)=C(c2ccc(Cl)cc2)C1 [Example 230, 4-(4-{[2-(4-chlorophenyl)-4,4-dimethylcyclohex-1-en-1-yl]methyl}piperazin-1-yl)-2-(1H-indol-5-yloxy)-N-[(3-nitro-4-{[1-(1,3-thiazol-2-ylmethyl)piperidin-4-yl]amino}phenyl)sulfonyl]benzamide] | 8.82 nM | > 660 nM | 178 nM | 
O=C(NS(=O)(=O)c1ccc(NC2CCN(C3CCOCC3)CC2)c([N+](=O)[O-])c1)c1ccc(N2CCN(CC3=C(c4ccc(Cl)cc4)CCC(O)C3)CC2)cc1Oc1ccc2[nH]ccc2c1 (stereo not shown) [Example 225, 4-(4-{[2-(4-chlorophenyl)-5-hydroxycyclohex-1-en-1-yl]methyl}piperazin-1-yl)-2-(1H-indol-5-yloxy)-N-({3-nitro-4-[(1-tetrahydro-2H-pyran-4-ylpiperidin-4-yl)amino]phenyl}sulfonyl)benzamide] | 0.01 nM | 3.48 nM | 29.9 nM | 
CNc1ccc(S(=O)(=O)NC(=O)c2ccc(N3CCN(CC4=C(c5ccc(Cl)cc5)CC(C)(C)CC4)CC3)cc2Oc2ccc3[nH]ccc3c2)cc1[N+](=O)[O-] [Example 245, 4-(4-{[2-(4-chlorophenyl)-4,4-dimethylcyclohex-1-en-1-yl]methyl}piperazin-1-yl)-2-(1H-indol-5-yloxy)-N-{[4-(methylamino)-3-nitrophenyl]sulfonyl}benzamide] | 1.62 nM | > 660 nM | 72.4 nM | 
CC1(C)CCC(CN2CCN(c3ccc(C(=O)NS(=O)(=O)c4ccc(NCC56CC7CC(C5)C(O)[C@H](C7)C6)c([N+](=O)[O-])c4)c(Oc4ccc5[nH]ccc5c4)c3)CC2)=C(c2ccc(Cl)cc2)C1 (stereo partly drawn) [Example 321, 4-(4-{[2-(4-chlorophenyl)-4,4-dimethylcyclohex-1-en-1-yl]methyl}piperazin-1-yl)-N-{[4-({[(3R)-4-hydroxy-1-adamantyl]methyl}amino)-3-nitrophenyl]sulfonyl}-2-(1H-indol-5-yloxy)benzamide] | 0.689 nM | > 660 nM | 29.1 nM | 
CC1(C)CCC(CN2CCN(c3ccc(C(=O)NS(=O)(=O)c4ccc(NCCC#N)c([N+](=O)[O-])c4)c(Oc4ccc5[nH]ccc5c4)c3)CC2)=C(c2ccc(Cl)cc2)C1 [Example 319, 4-(4-{[2-(4-chlorophenyl)-4,4-dimethylcyclohex-1-en-1-yl]methyl}piperazin-1-yl)-N-({4-[(2-cyanoethyl)amino]-3-nitrophenyl}sulfonyl)-2-(1H-indol-5-yloxy)benzamide] | 0.413 nM | 208 nM | 31.4 nM | 
CC1(C)CCC(CN2CCN(c3ccc(C(=O)NS(=O)(=O)c4ccc(NC5CCN(c6nccs6)CC5)c([N+](=O)[O-])c4)c(Oc4ccc5[nH]ccc5c4)c3)CC2)=C(c2ccc(Cl)cc2)C1 [Example 212, 4-(4-{[2-(4-chlorophenyl)-4,4-dimethylcyclohex-1-en-1-yl]methyl}piperazin-1-yl)-2-(1H-indol-5-yloxy)-N-[(3-nitro-4-{[1-(1,3-thiazol-2-yl)piperidin-4-yl]amino}phenyl)sulfonyl]benzamide] | 0.737 nM | > 660 nM | > 500 nM | 
CN1CCC(O)(CNc2ccc(S(=O)(=O)NC(=O)c3ccc(N4CCN(CC5=C(c6ccc(Cl)cc6)CC(C)(C)CC5)CC4)cc3Oc3ccc4[nH]ccc4c3)cc2[N+](=O)[O-])CC1 [Example 183, 4-(4-{[2-(4-chlorophenyl)-4,4-dimethylcyclohex-1-en-1-yl]methyl}piperazin-1-yl)-N-[(4-{[(4-hydroxy-1-methylpiperidin-4-yl)methyl]amino}-3-nitrophenyl)sulfonyl]-2-(1H-indol-5-yloxy)benzamide] | 0.039 nM | 9.43 nM | 30.8 nM | 
CC1(C)CCC(CN2CCN(c3ccc(C(=O)NS(=O)(=O)c4ccc(NC5CCN(CC6CC6)CC5)c([N+](=O)[O-])c4)c(Oc4ccc5[nH]ccc5c4)c3)CC2)=C(c2ccc(Cl)cc2)C1 [Example 214, 4-(4-{[2-(4-chlorophenyl)-4,4-dimethylcyclohex-1-en-1-yl]methyl}piperazin-1-yl)-N-[(4-{[1-(cyclopropylmethyl)piperidin-4-yl]amino}-3-nitrophenyl)sulfonyl]-2-(1H-indol-5-yloxy)benzamide] | 0.082 nM | 64 nM | 15.7 nM | 
CC1(C)CCC(CN2CCN(c3ccc(C(=O)NS(=O)(=O)c4ccc(N[C@H]5CC[C@H](N6CCOCC6)CC5)c([N+](=O)[O-])c4)c(Oc4cccc5[nH]ccc45)c3)CC2)=C(c2ccc(Cl)cc2)C1 [Example 204, Trans-4-(4-{[2-(4-chlorophenyl)-4,4-dimethylcyclohex-1-en-1-yl]methyl}piperazin-1-yl)-2-(1H-indol-4-yloxy)-N-({4-[(4-morpholin-4-ylcyclohexyl)amino]-3-nitrophenyl}sulfonyl)benzamide] | 0.145 nM | 42.3 nM | 27.4 nM | 
CC1(C)CCC(CN2CCN(c3ccc(C(=O)NS(=O)(=O)c4ccc(OCCC5CCOCC5)c([N+](=O)[O-])c4)c(Oc4cccc5[nH]ccc45)c3)CC2)=C(c2ccc(Cl)cc2)C1 [Example 314, 4-(4-{[2-(4-chlorophenyl)-4,4-dimethylcyclohex-1-en-1-yl]methyl}piperazin-1-yl)-2-(1H-indol-4-yloxy)-N-{[3-nitro-4-(2-tetrahydro-2H-pyran-4-ylethoxy)phenyl]sulfonyl}benzamide] | 3.07 nM | > 660 nM | 240 nM | 
CN1CCC(O)(CCNc2ccc(S(=O)(=O)NC(=O)c3ccc(N4CCN(CC5=C(c6ccc(Cl)cc6)CC(C)(C)CC5)CC4)cc3Oc3ccc4[nH]ccc4c3)cc2[N+](=O)[O-])CC1 [Example 211, 4-(4-{[2-(4-chlorophenyl)-4,4-dimethylcyclohex-1-en-1-yl]methyl}piperazin-1-yl)-N-[(4-{[2-(4-hydroxy-1-methylpiperidin-4-yl)ethyl]amino}-3-nitrophenyl)sulfonyl]-2-(1H-indol-5-yloxy)benzamide] | 0.009 nM | 5.61 nM | 17.1 nM | 
CC(c1ccccc1-c1ccc(Cl)cc1)N1CCN(c2ccc(C(=O)NS(=O)(=O)c3ccc(NC4CCN(C)CC4)c([N+](=O)[O-])c3)c(Oc3cccc4[nH]ccc34)c2)CC1 (stereo not shown) [Example 206, 4-{4-[1-(4′-chloro-1,1′-biphenyl-2-yl)ethyl]piperazin-1-yl}-2-(1H-indol-4-yloxy)-N-({4-[(1-methylpiperidin-4-yl)amino]-3-nitrophenyl}sulfonyl)benzamide] | 0.083 nM | > 660 nM | 5.01 nM | 
CC(C)(C)CCNc1ccc(S(=O)(=O)NC(=O)c2ccc(N3CCN(CC4=C(c5ccc(Cl)cc5)CC(C)(C)CC4)CC3)cc2Oc2ccc3[nH]ccc3c2)cc1[N+](=O)[O-] [Example 368, 4-(4-{[2-(4-chlorophenyl)-4,4-dimethylcyclohex-1-en-1-yl]methyl}piperazin-1-yl)-N-({4-[(3,3-dimethylbutyl)amino]-3-nitrophenyl}sulfonyl)-2-(1H-indol-5-yloxy)benzamide] | > 1200 nM | > 660 nM | > 500 nM | 
CO[C@H]1CC[C@H](CNc2ccc(S(=O)(=O)NC(=O)c3ccc(N4CCN(CC5=C(c6ccc(Cl)cc6)CC(C)(C)CC5)CC4)cc3Oc3ccc4[nH]ccc4c3)cc2[N+](=O)[O-])CC1 [Example 311, Trans-4-(4-{[2-(4-chlorophenyl)-4,4-dimethylcyclohex-1-en-1-yl]methyl}piperazin-1-yl)-2-(1H-indol-5-yloxy)-N-[(4-{[(4-methoxycyclohexyl)methyl]amino}-3-nitrophenyl)sulfonyl]benzamide] | 0.26 nM | > 660 nM | 33.4 nM | 
